Data taken from patent US9937115B2, “Oral care compositions with improved flavor” (priority 2010, dated 2018).
Structures can show the parent of a compound that is named as a salt. Where two headings read alike, the source gives them in different places. Residues, ends and D or L forms follow the SMILES beside them.

Molecular target: T1, TRPA1 receptor (Homo sapiens, UniProt O75762)
T1 construct: expressed in transfected cells; host or cells: HEK cell line
Assay: cell-based
Set-up: activation: dose or concentration left out as unconfirmed
Conditions: for activation at 100 µM: direct addition, read-out: TRPA1 Direct addition
Method: The term “TRPA1 activator” as used herein refers to any component which at a concentration of 1 mM gives a calcium flux count of at least 1000 counts above the background level of calcium present in the cell according to the FLIPR method as discussed herein. The term “count” is defined as the change in fluorescence of the transfected cell lines due to the influx of calcium across the cell membrane, which reacts with the calcium sensitive dye present within the cells.
In order to select TRPA1 agonists that would be preferred for reducing off-tasting chemical components found in oral care compositions, calcium flux receptor activity on the TRPA1 was utilized as the criteria for selection of actives. With allyl isothiocyanate as the TRPA1 positive control, molecules that directly activated the TRPA1 receptor were screened in dimethylsulfoxide (DMSO). Pure molecules of each material were dissolved in DMSO at a concentration of 100 micormolar and then added to an HEK cell line containing the TRPA1 receptor. If they are TRPA1 agonists, they will cause a calcium flux in the cell which fluoresces and may then be measured using a FLIPR machine.

[1] = HEK293, percentage of the control (allyl isothiocyanate) calcium count, material dissolved in DMSO at 100 micromolar, HEK cells with TRPA1
[2] = HEK293, percentage of the control (allyl isothiocyanate) calcium count, material dissolved in DMSO at 100 micromolar, HEK cells with TRPA1, pre-incubation, read-out: TRPA1 Pre-incubation
[3] = HEK293, read-out: TRPA1 Direct addition
[4] = HEK293, read-out: TRPA1 Pre-incubation
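Throughout, for TRPA1 Pre-incubation: values above 100 mean more active than the control.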

T1 sequence (O75762 whole entry): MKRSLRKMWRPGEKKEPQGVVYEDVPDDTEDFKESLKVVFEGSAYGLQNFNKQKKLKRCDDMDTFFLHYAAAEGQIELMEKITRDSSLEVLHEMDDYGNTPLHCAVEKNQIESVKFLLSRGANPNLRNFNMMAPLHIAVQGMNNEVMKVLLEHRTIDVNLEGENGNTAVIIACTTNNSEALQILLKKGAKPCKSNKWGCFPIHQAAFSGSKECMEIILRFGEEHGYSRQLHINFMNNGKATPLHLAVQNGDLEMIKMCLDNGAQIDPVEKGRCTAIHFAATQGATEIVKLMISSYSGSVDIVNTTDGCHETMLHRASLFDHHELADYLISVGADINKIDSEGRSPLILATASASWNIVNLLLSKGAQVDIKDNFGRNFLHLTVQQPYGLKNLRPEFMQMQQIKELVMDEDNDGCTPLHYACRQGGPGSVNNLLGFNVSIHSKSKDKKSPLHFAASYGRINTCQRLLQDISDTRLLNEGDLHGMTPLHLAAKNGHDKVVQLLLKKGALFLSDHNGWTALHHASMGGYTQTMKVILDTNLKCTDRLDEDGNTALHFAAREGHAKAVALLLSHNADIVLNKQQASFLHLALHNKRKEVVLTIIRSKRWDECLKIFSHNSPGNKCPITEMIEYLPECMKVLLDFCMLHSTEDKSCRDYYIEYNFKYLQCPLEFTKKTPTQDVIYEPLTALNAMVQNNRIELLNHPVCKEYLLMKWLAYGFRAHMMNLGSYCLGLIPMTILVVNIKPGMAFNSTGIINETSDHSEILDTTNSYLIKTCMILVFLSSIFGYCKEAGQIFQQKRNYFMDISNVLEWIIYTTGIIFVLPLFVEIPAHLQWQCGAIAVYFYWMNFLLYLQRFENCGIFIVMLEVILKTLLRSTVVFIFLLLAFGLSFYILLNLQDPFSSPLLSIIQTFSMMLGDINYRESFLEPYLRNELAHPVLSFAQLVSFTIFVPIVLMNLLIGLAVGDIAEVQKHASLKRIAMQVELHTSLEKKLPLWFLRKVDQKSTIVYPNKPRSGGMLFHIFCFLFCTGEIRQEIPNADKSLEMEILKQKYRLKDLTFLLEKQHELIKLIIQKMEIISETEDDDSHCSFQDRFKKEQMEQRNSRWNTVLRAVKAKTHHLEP

## C=CCOC(=O)CCCCC [Allyl Hexanoate]
[1]
  activation at 100 µM: 0.75%
[2]
  activation: 88.1%

## CCCCCCCCCC(C)C=O (stereo not shown) [2-Methylundecanal]
[1]
  activation at 100 µM: 0.82%
[2]
  activation: 79.8%

## CCCC(C)=O [Material 2-Pentanone, 2-Pentanone]
[1]
  activation at 100 µM: 0.73%
[2]
  activation: 90.1%

## C=CCOC(=O)c1ccccc1N [Allyl anthranilate]
[1]
  activation at 100 µM: 0.29%
[2]
  activation: 99.5%

## CCCCCC(=O)OCC(C)C [Isobutyl Hexanoate]
[1]
  activation at 100 µM: -17.1%
[2]
  activation: 53.1%

## CC(C)=CCCC(C)=CCCC(C)=CCO [Farnesol]
[1]
  activation at 100 µM: 0.1%
[2]
  activation: 56.6%

## COC(OC)c1ccccc1 [Benzaldehyde Dimethyl Acetal]
[3]
  activation: -0.68%
[4]
  activation: 120%

## CCCCCCCCCCCC(=O)OCC [Ethyl Laurate]
[1]
  activation at 100 µM: 0.12%
[2]
  activation: 75.8%

## CSCCCO [3-(Methylthio) Propanol]
[1]
  activation at 100 µM: -0.92%
[2]
  activation: 73.1%

## CCC(=O)OCc1ccccc1 [Benzyl Propionate]
[1]
  activation at 100 µM: 0.52%
[2]
  activation: 63%

## CC/C=C\CC1=C(C)CCC1=O [Jasmone]
[1]
  activation at 100 µM: 46.5%
[2]
  activation: 51.6%

## COC(=O)[C@H](Cc1ccccc1)NC(=O)[C@@H](N)CC(=O)O [Aspartame] (H-Asp-Phe-OMe)
[1]
  activation at 100 µM: -2.15%
[2]
  activation: 80%

## C=Cc1ccc(O)c(OC)c1 [2-Methoxy-4-Vinylphenol]
[1]
  activation at 100 µM: 1.16%
[2]
  activation: 71.4%

## CCCCCCOC(C)=O [Hexyl Acetate]
[1]
  activation at 100 µM: -0.01%
[2]
  activation: 49.1%

## CCC=C(C)C(=O)O [2-Methyl-2-Pentenoic Acid]
[1]
  activation at 100 µM: -1.27%
[2]
  activation: 73.8%

## CC1=C(O)C(=O)C(C)O1 (stereo not shown) [4-Hydroxy-2,5-Dimethyl-3(2H)-Furanone]
[1]
  activation at 100 µM: 2.68%
[2]
  activation: 72%

## CCOC(=O)Cc1ccccc1 [Ethyl Phenylacetate]
[3]
  activation: -0.28%
[4]
  activation: 76.2%

## Cc1ncsc1CCO [4-Methyl-5-Thiazoleethanol]
[1]
  activation at 100 µM: 0.56%
[2]
  activation: 72.8%

## CCCCCCCC(C)=O [Material 2-Nonanone, 2-Nonanone]
[1]
  activation at 100 µM: 0.36%
[2]
  activation: 77.2%

## CCCCCC/C=C/C=C/C=O [trans,trans-2,4-Undecadienal]
[1]
  activation at 100 µM: 122%
[2]
  activation: -3.93%

## OC/C=C/c1ccccc1 [Cinnamic Alcohol]
[1]
  activation at 100 µM: -1.45%
[2]
  activation: 84%

## O=Cc1ccccc1 [Benzaldehyde]
[1]
  activation at 100 µM: -1.46%
[2]
  activation: 90.1%

## CC(C)C(=O)OCCc1ccccc1 [Phenylethyl Isobutyrate]
[1]
  activation at 100 µM: -3.56%
[2]
  activation: 63.9%

## CCCCCC(=O)OCC [Ethyl Hexanoate]
[1]
  activation at 100 µM: 0.41%
[2]
  activation: 92.3%

## CC(=O)OC1CCCCC1 [Cyclohexyl Acetate]
[1]
  activation at 100 µM: -1.27%
[2]
  activation: 68.8%

## CC=CC(=O)C(C)CC (stereo not shown) [5-Methyl-2-Hepten-4-one]
[1]
  activation at 100 µM: 15.5%
[2]
  activation: 87.8%

## CC/C=C/C=C/C=O [Trans,trans-2,4-Heptadienal]
[1]
  activation at 100 µM: 119%
[2]
  activation: -3.68%

## O=C(OCc1ccccc1)c1ccccc1 [Benzyl Benzoate]
[1]
  activation at 100 µM: 53.9%
[2]
  activation: 18.9%

## OCCCc1ccccc1 [3-Phenyl-1-Propanol]
[1]
  activation at 100 µM: -0.04%
[2]
  activation: 92.2%

## CC1=C(CC=O)C(C)(C)CCC1 [2,6,6-Trimethyl-1-cyclohexene-1-acetaldehyde]
[1]
  activation at 100 µM: -0.32%
[2]
  activation: 106%

## CC(C)CCOC(=O)CC(C)C [Isoamyl Isovalerate]
[1]
  activation at 100 µM: 0.18%
[2]
  activation: 59.6%

## COc1cccc(OC)c1 [M-Dimethoxybenzene]
[1]
  activation at 100 µM: -0.59%
[2]
  activation: 80.6%

## C=CC(C)(CCC=C(C)C)OC(C)=O (stereo not shown) [Linalyl Acetate]
[1]
  activation at 100 µM: -0.9%
[2]
  activation: 77.2%

## CCCCCCC(C)O (stereo not shown) [Material 2-Octanol, 2-Octanol]
[1]
  activation at 100 µM: -14.1%
[2]
  activation: 55.3%

## CC(C)=CCC/C(C)=C/CO [Geraniol]
[1]
  activation at 100 µM: 5.19%
[2]
  activation: 113%

## OCc1ccccc1 [Benzyl Alcohol]
[1]
  activation at 100 µM: 21.4%
[2]
  activation: 14.6%

## CC/C=C\CCOC(=O)CCCCC [cis-3-Hexenyl Hexanoate]
[1]
  activation at 100 µM: 0.08%
[2]
  activation: 106%

## CC(C)=CCCC(C)CCOC=O (stereo not shown) [Citronellyl Formate]
[1]
  activation at 100 µM: -0.57%
[2]
  activation: 89.5%

## O=CC=Cc1ccccc1 [Cinnamaldehyde]
[1]
  activation at 100 µM: 114%
[2]
  activation: -1.2%

## CC1=CCC(=C(C)C)CC1 [Terpinolene]
[1]
  activation at 100 µM: -17.2%
[2]
  activation: 76.2%

## CCC(=O)OC/C=C(\C)CCC=C(C)C [Geranyl Propionate]
[1]
  activation at 100 µM: 0.09%
[2]
  activation: 47.9%

## CCCC(=O)OCC [Ethyl Butyrate]
[1]
  activation at 100 µM: -0.32%
[2]
  activation: 87%

## C=CCN=C=S [Allyl Isothiocyanate, reference compound]
[2]
  activation: 21.6%
Restated in Table III from Table II
  % of AITC Receptor Activation (from Data in Table II): 100%

## COc1cc(C)cc(OC)c1O [4-Methyl-2,6-Dimethoxyphenol]
[1]
  activation at 100 µM: 45.9%
[2]
  activation: 9.25%

## CCCC=O [Butyraldehyde]
[1]
  activation at 100 µM: 28.9%
[2]
  activation: 66.2%

## CCc1ccccc1S [2-Ethylthiophenol]
[1]
  activation at 100 µM: 0.34%
[2]
  activation: 5.23%

## CCCCCCCCCCC(=O)O [Undecanoic Acid]
[1]
  activation at 100 µM: -14.6%
[2]
  activation: 24.7%

## CCCCOC(=O)CC [Butyl Propionate]
[1]
  activation at 100 µM: -0.32%
[2]
  activation: 53.4%

## COC(=O)c1ccccc1N [Methyl Anthranilate]
[1]
  activation at 100 µM: 69.6%
[2]
  activation: 1.27%

## CCCC(=O)OCc1ccccc1 [Benzyl Butyrate]
[1]
  activation at 100 µM: -3.01%
[2]
  activation: 58.7%

## CCCCCOC(=O)CCC [Amyl Butyrate]
[1]
  activation at 100 µM: -2.64%
[2]
  activation: 75.9%

## Cc1cnc(C)cn1 [2,5-Dimethylpyrazine]
[1]
  activation at 100 µM: -1.08%
[2]
  activation: 66.8%

## CC(=O)OCCC(C)C [Isoamyl Acetate]
[1]
  activation at 100 µM: 0.07%
[2]
  activation: 41%

## CC(C)CC(=O)OCC=Cc1ccccc1 [Cinnamyl Isovalerate]
[1]
  activation at 100 µM: -0.43%
[2]
  activation: 49.7%

## CCCC/C=C/C=O [trans-2-Heptenal]
[1]
  activation at 100 µM: 95.9%
[2]
  activation: -3.74%

## CC(C)=CC=O [3-Methyl-2-Butenal]
[1]
  activation at 100 µM: 34.4%
[2]
  activation: 66.3%

## C=CCOC(=O)CCC [Allyl Butyrate]
[1]
  activation at 100 µM: 0.02%
[2]
  activation: 98%

## CC/C=C\CCOC(=O)C/C=C\CC [cis-3-Hexenyl cis-3-Hexenoate, [(Z)-hex-3-enyl] (Z)-hex-3-enoate]
[1]
  activation at 100 µM: -1.04%
[2]
  activation: 122%

## CC(=O)OC1CC2CCC1(C)C2(C)C (stereo not shown) [Bornyl Acetate]
[1]
  activation at 100 µM: -0.6%
[2]
  activation: 51.2%

## CCC/C=C/COC(C)=O [Trans-2-Hexenyl Acetate]
[1]
  activation at 100 µM: -0.32%
[2]
  activation: 68.7%

## CCCCCCCCCCCC(=O)O [Lauric Acid]
[1]
  activation at 100 µM: -2.82%
[2]
  activation: 96%

## CCOC(=O)CC(O)(CC(=O)OCC)C(=O)OCC [Triethyl Citrate]
[1]
  activation at 100 µM: -9.43%
[2]
  activation: 82.2%

## CC=Cc1ccc(OCc2ccccc2)c(OC)c1 [1-Benzyloxy-2-Mehtoxy-4-(1-Propenyl) Benzene]
  TRPA1 Direct addition: −3.8%
  TRPA1 Pre-incubation: 30.8%

## CC(=O)OC(C)c1ccccc1 (stereo not drawn) [Alpha-Methylbenzyl Acetate]
[1]
  activation at 100 µM: 1.45%
[2]
  activation: 70.8%

## CCC(C)COC(C)=O (stereo not shown) [2-Methylbutyl Acetate]
[1]
  activation at 100 µM: -0.99%
[2]
  activation: 60.3%

## CCCCCCC(C)=O [Material 2-Octanone, 2-Octanone]
[1]
  activation at 100 µM: -17.1%
[2]
  activation: 93.3%

## CCc1cnccn1 [2-Ethylpyrazine]
[1]
  activation at 100 µM: -1.56%
[2]
  activation: 49.9%

## CCCCC(O)CC (stereo not shown) [Material 3-Heptanol, 3-Heptanol]
[1]
  activation at 100 µM: -1.06%
[2]
  activation: 81.3%

## COc1cccc(OC)c1O [2,6-Dimethoxyphenol]
[1]
  activation at 100 µM: -0.24%
[2]
  activation: 71.6%

## COc1ccccc1O [Guaiacol]
[1]
  activation at 100 µM: -0.08%
[2]
  activation: 87.7%

## CC(=O)OC/C=C(\C)CCC=C(C)C [Geranyl Acetate]
[1]
  activation at 100 µM: 0.33%
[2]
  activation: 63.2%

## C=C1CC/C=C(\C)CC[C@@H]2[C@@H]1CC2(C)C [Beta-Caryophyllene]
[1]
  activation at 100 µM: 0.21%
[2]
  activation: 97.8%

## CC(=O)OCC(C)C [Isobutyl Acetate]
[1]
  activation at 100 µM: -0.23%
[2]
  activation: 95.7%

## CC(C)C(=O)OCc1ccccc1 [Benzyl Isobutyrate]
[1]
  activation at 100 µM: -2.7%
[2]
  activation: 65%

## CC(=O)c1ccccc1 [Acetophenone]
[1]
  activation at 100 µM: 0.64%
[2]
  activation: 81.1%

## CC(=O)OCCc1scnc1C [4-Methyl-5-Thiazoleethanol Acetate]
[1]
  activation at 100 µM: 0.62%
[2]
  activation: 76.4%

## C=CC(C)(O)CCC=C(C)C (stereo not shown) [Linalool]
[1]
  activation at 100 µM: -1.58%
[2]
  activation: 44.8%
